Laboratory results published in patent US6737383B1, “Herbicidal oxadiazolidines” (priority 1999, dated 2004).

How the values were obtained:
rape = assay: Test B pre/postemergence rape; format: in vivo, Brassica napus
Outline: (§1)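 Herbicidal effect was estimated by eye on a ten-point control scale after plants spent twelve to sixteen days in a greenhouse following soil or foliar treatment. Foliar sprays targeted plants at one to four leaves; all doses were formulated in a non-phytotoxic solvent with surfactant.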

cocklebur = assay: Test B pre/postemergence cocklebur; format: in vivo, Xanthium strumarium
Outline: as §1

blackgrass = assay: Test B pre/postemergence blackgrass; format: in vivo, Alopecurus myosuroides
Outline: as §1

bedstraw = assay: Test B pre/postemergence bedstraw; format: in vivo, Galium aparine
Outline: as §1

sugar beet = assay: Test B pre/postemergence sugar beet; format: in vivo, Beta vulgaris
Outline: as §1

surinam grass = assay: Test B pre/postemergence surinam grass; format: in vivo, Brachiaria decumbens
Outline: as §1

purple nutsedge = assay: Test B pre/postemergence purple nutsedge; format: in vivo, Cyperus rotundus
Outline: as §1

duck salad = assay: Test B flood test duck salad; format: in vivo, Heteranthera limosa
Outline: (§2)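 Read-out is a visual response score from 0 (no effect) to 10 (complete control), assigned by comparison with untreated controls. Treatment was applied at the 2-leaf stage, and plants stayed in the greenhouse for twelve to sixteen days before scoring.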

corn = assay: Test B pre/postemergence corn; format: in vivo, Zea mays
Outline: as §1

wheat = assay: Test B pre/postemergence wheat; format: in vivo, Triticum aestivum
Outline: as §1

velvetleaf = assay: Test B pre/postemergence velvetleaf; format: in vivo, Abutilon theophrasti
Outline: as §1

crabgrass = assay: Test B pre/postemergence crabgrass; format: in vivo, Digitaria sanguinalis
Outline: as §1

soybean = assay: Test B pre/postemergence soybean; format: in vivo, Glycine max
Outline: as §1

smallflower flatsedge = assay: Test B flood test smallflower flatsedge; format: in vivo, Cyperus difformis
Outline: as §2

wild oat = assay: Test B pre/postemergence wild oat; format: in vivo, Avena fatua
Outline: as §1

rice = assay: Test B flood test rice; format: in vivo, Oryza sativa
Outline: as §2

giant foxtail = assay: Test B pre/postemergence giant foxtail; format: in vivo, Setaria faberii
Outline: as §1

bamyardgrass = assay: Test B flood test barnyardgrass; format: in vivo, Echinochloa crus-galli
Outline: as §2

pigweed = assay: Test B pre/postemergence pigweed; format: in vivo, Amaranthus retroflexus
Outline: as §1

morningglory = assay: Test B pre/postemergence morningglory; format: in vivo, Ipomoea hederacea
Outline: as §1

[1] = Preemergence, Rate 62 g/ha, scale of 0 to 10 where 0 is no effect and 10 is complete control
[2] = Preemergence, Rate 250 g/ha, scale of 0 to 10 where 0 is no effect and 10 is complete control
[3] = Preemergence, Rate 500 g/ha, scale of 0 to 10 where 0 is no effect and 10 is complete control
[4] = Rate 62 g/ha, Postemergence, scale of 0 to 10 where 0 is no effect and 10 is complete control
[5] = Rate 125 g/ha, Preemergence, scale of 0 to 10 where 0 is no effect and 10 is complete control
[6] = Rate 500 g/ha, Postemergence, scale 0 to 10, 0 no effect, 10 complete control
[7] = Rate 125 g/ha, Postemergence, scale 0 to 10
[8] = Rate 62 g/ha, headed Pre-emergence (flood test species), scale 0 to 10 (0 no effect, 10 complete control)
[9] = Rate 125 g/ha, Pre-emergence, flood test species, scale 0 to 10 where 0 is no effect and 10 is complete control
[10] = Rate 250 g/ha, Pre-emergence, flood-test species, scale 0 to 10, 0 is no effect, 10 is complete control
[11] = Rate 500 g/ha, Pre-emergence, flood test species, scale 0 to 10 (0 no effect, 10 complete control)

Cc1ccccc1-n1c(=O)on(C(=O)N(c2ccc(F)cc2)C(C)C2CC2)c1=O (centres unmarked) [Compound 240] was tested, and the “Rape plant response rating” value (rape; [1]) was 0, the “Rape plant response rating” value (rape; [2]) was 0 and the “Plant response rating, Rape” value (rape; [3]) was 0. The “Rape plant response rating” value (rape; [4]) was 0, the “Rape plant response rating” value (rape; [5]) was 0 and the “Plant response rating (0 to 10; 0 is no effect, 10 is complete control), Rape” value (rape; Rate 250 g/ha, Postemergence) was 0. For the same molecule, the “Rape plant response rating” value (rape; [6]) was 0, the “Cocklebur plant response rating” value (cocklebur; [1]) was 0 and the “Cocklebur plant response rating” value (cocklebur; [2]) was 0. The “Plant response rating, Cocklebur” value (cocklebur; [3]) was 0, the “Cocklebur plant response rating” value (cocklebur; [4]) was 0 and the “Cocklebur plant response rating” value (cocklebur; [7]) was 1. For the same molecule, the “Cocklebur plant response rating” value (cocklebur; [5]) was 0, the “Plant response rating (0 to 10; 0 is no effect, 10 is complete control), Cocklebur” value (cocklebur; Rate 250 g/ha, Postemergence) was 1 and the “Cocklebur plant response rating” value (cocklebur; [6]) was 1. For the same molecule, the “Blackgrass plant response rating” value (blackgrass; [1]) was 0, the “Blackgrass plant response rating” value (blackgrass; [2]) was 0 and the “Plant response rating, Blackgrass” value (blackgrass; [3]) was 2. For the same molecule, the “Blackgrass plant response rating” value (blackgrass; [4]) was 0, the “Blackgrass plant response rating” value (blackgrass; [7]) was 0 and the “Blackgrass plant response rating” value (blackgrass; [5]) was 0. The “Plant response rating (0 to 10; 0 is no effect, 10 is complete control), Blackgrass” value (blackgrass; Rate 250 g/ha, Postemergence) was 0, the “Blackgrass plant response rating” value (blackgrass; [6]) was 5 and the “Bedstraw plant response rating” value (bedstraw; [1]) was 0. The “Bedstraw plant response rating” value (bedstraw; [2]) was 0, the “Plant response rating, Bedstraw” value (bedstraw; [3]) was 0 and the “Bedstraw plant response rating” value (bedstraw; [4]) was 0. The “Bedstraw plant response rating” value (bedstraw; [7]) was 3, the “Bedstraw plant response rating” value (bedstraw; [5]) was 0 and the “Plant response rating (0 to 10; 0 is no effect, 10 is complete control), Bedstraw” value (bedstraw; Rate 250 g/ha, Postemergence) was 3. For the same molecule, the “Bedstraw plant response rating” value (bedstraw; [6]) was 5, the “Sugarbeets plant response rating” value (sugar beet; [1]) was 0 and the “Sugarbeets plant response rating” value (sugar beet; [2]) was 0. For the same molecule, the “Plant response rating, Sugarbeets” value (sugar beet; [3]) was 0, the “Sugarbeets plant response rating” value (sugar beet; [4]) was 0 and the “Sugarbeets plant response rating” value (sugar beet; [5]) was 0. The “Sugarbeets plant response rating” value (sugar beet; [6]) was 3, the “B. signalgrass plant response rating” value (surinam grass; [1]) was 0 and the “B. signalgrass plant response rating” value (surinam grass; [2]) was 0. For the same molecule, the “Plant response rating, B. signalgrass” value (surinam grass; [3]) was 3, the “B. signalgrass plant response rating” value (surinam grass; [4]) was 0 and the “B. signalgrass plant response rating” value (surinam grass; Rate 125 g/ha, Postemergence, scale 0 (no effect) to 10 (complete control)) was 0. For the same molecule, the “B. signalgrass plant response rating” value (surinam grass; [5]) was 0, the “Plant response rating (0 to 10; 0 is no effect, 10 is complete control), B. signalgrass” value (surinam grass; Rate 250 g/ha, Postemergence) was 0 and the “B. signalgrass plant response rating” value (surinam grass; [6]) was 0. The “Nutsedge plant response rating” value (purple nutsedge; [2]) was 0, the “Nutsedge plant response rating” value (purple nutsedge; [4]) was 0 and the “Plant response rating (0 to 10; 0 is no effect, 10 is complete control), Nutsedge” value (purple nutsedge; Rate 250 g/ha, Postemergence) was 0. For the same molecule, the “Nutsedge plant response rating” value (purple nutsedge; [6]) was 0, the “Ducksalad plant response rating” value (duck salad; [8]) was 0 and the “Ducksalad plant response rating” value (duck salad; [9]) was 0. The “Ducksalad plant response rating” value (duck salad; [10]) was 0, the “Ducksalad plant response rating” value (duck salad; [11]) was 0 and the “Corn plant response rating” value (corn; [1]) was 0. For the same molecule, the “Corn plant response rating” value (corn; [2]) was 0, the “Plant response rating, Corn” value (corn; [3]) was 0 and the “Corn plant response rating” value (corn; [4]) was 0. For the same molecule, the “Corn plant response rating” value (corn; [7]) was 0, the “Corn plant response rating” value (corn; [5]) was 0 and the “Plant response rating (0 to 10; 0 is no effect, 10 is complete control), Corn” value (corn; Rate 250 g/ha, Postemergence) was 0. For the same molecule, the “Corn plant response rating” value (corn; [6]) was 0, the “Wheat plant response rating” value (wheat; [1]) was 0 and the “Wheat plant response rating” value (wheat; [2]) was 0. The “Plant response rating, Wheat” value (wheat; [3]) was 0, the “Wheat plant response rating” value (wheat; [4]) was 0 and the “Wheat plant response rating” value (wheat; [5]) was 0. The “Wheat plant response rating” value (wheat; [6]) was 2, the “Velvetleaf plant response rating” value (velvetleaf; [1]) was 0 and the “Velvetleaf plant response rating” value (velvetleaf; [2]) was 0. The “Plant response rating, Velvetleaf” value (velvetleaf; [3]) was 2, the “Velvetleaf plant response rating” value (velvetleaf; [4]) was 0 and the “Velvetleaf plant response rating” value (velvetleaf; [5]) was 0. For the same molecule, the “Velvetleaf plant response rating” value (velvetleaf; [6]) was 3, the “Crabgrass plant response rating” value (crabgrass; [1]) was 2 and the “Crabgrass plant response rating” value (crabgrass; [2]) was 9. For the same molecule, the “Plant response rating, Crabgrass” value (crabgrass; [3]) was 9, the “Crabgrass plant response rating” value (crabgrass; [4]) was 0 and the “Crabgrass plant response rating” value (crabgrass; [5]) was 4. For the same molecule, the “Plant response rating (0 to 10; 0 is no effect, 10 is complete control), Crabgrass” value (crabgrass; Rate 250 g/ha, Postemergence) was 2, the “Crabgrass plant response rating” value (crabgrass; [6]) was 4 and the “Soybean plant response rating” value (soybean; [1]) was 0. For the same molecule, the “Soybean plant response rating” value (soybean; [2]) was 0, the “Plant response rating, Soybean” value (soybean; [3]) was 0 and the “Soybean plant response rating” value (soybean; [4]) was 0. The “Soybean plant response rating” value (soybean; [5]) was 0, the “Soybean plant response rating” value (soybean; [6]) was 3 and the “S. Flatsedge plant response rating” value (smallflower flatsedge; [8]) was 0. The “S. Flatsedge plant response rating” value (smallflower flatsedge; [9]) was 0, the “S. Flatsedge plant response rating” value (smallflower flatsedge; [10]) was 0 and the “S. Flatsedge plant response rating” value (smallflower flatsedge; [11]) was 0. The “Wild oats plant response rating” value (wild oat; [1]) was 0, the “Wild oats plant response rating” value (wild oat; [2]) was 0 and the “Plant response rating, Wild oats” value (wild oat; [3]) was 0. The “Wild oats plant response rating” value (wild oat; [4]) was 0, the “Wild oats plant response rating” value (wild oat; [5]) was 0 and the “Wild oats plant response rating” value (wild oat; [6]) was 2. For the same molecule, the “Rice plant response rating” value (rice; [8]) was 0, the “Rice plant response rating” value (rice; [9]) was 0 and the “Rice plant response rating” value (rice; [10]) was 0. For the same molecule, the “Rice plant response rating” value (rice; [11]) was 0, the “Giant foxtail plant response rating” value (giant foxtail; [1]) was 5 and the “Giant foxtail plant response rating” value (giant foxtail; [2]) was 10. For the same molecule, the “Plant response rating, Giant foxtail” value (giant foxtail; [3]) was 10, the “Giant foxtail plant response rating” value (giant foxtail; [4]) was 0 and the “Giant foxtail plant response rating” value (giant foxtail; [5]) was 5. For the same molecule, the “Plant response rating (0 to 10; 0 is no effect, 10 is complete control), Giant foxtail” value (giant foxtail; Rate 250 g/ha, Postemergence) was 0, the “Giant foxtail plant response rating” value (giant foxtail; [6]) was 2 and the “Barnyardgrass plant response rating” value (bamyardgrass; [8]) was 0. The “Barnyardgrass plant response rating” value (bamyardgrass; [9]) was 0, the “Barnyardgrass plant response rating” value (bamyardgrass; [10]) was 0 and the “Barnyardgrass plant response rating” value (bamyardgrass; [11]) was 0. For the same molecule, the “Redroot pigweed plant response rating” value (pigweed; [1]) was 0, the “Redroot pigweed plant response rating” value (pigweed; [2]) was 0 and the “Plant response rating, Redroot pigweed” value (pigweed; [3]) was 0. For the same molecule, the “Redroot pigweed plant response rating” value (pigweed; [4]) was 0, the “Redroot pigweed plant response rating” value (pigweed; [5]) was 0 and the “Plant response rating (0 to 10; 0 is no effect, 10 is complete control), Redroot pigweed” value (pigweed; Rate 250 g/ha, Postemergence) was 2. For the same molecule, the “Redroot pigweed plant response rating” value (pigweed; [6]) was 7, the “Morningglory plant response rating” value (morningglory; [1]) was 0 and the “Morningglory plant response rating” value (morningglory; [2]) was 0. The “Plant response rating, Morningglory” value (morningglory; [3]) was 0, the “Morningglory plant response rating” value (morningglory; [4]) was 5 and the “Morningglory plant response rating” value (morningglory; [5]) was 0. For the same molecule, the “Plant response rating (0 to 10; 0 is no effect, 10 is complete control), Morningglory” value (morningglory; Rate 250 g/ha, Postemergence) was 10 and the “Morningglory plant response rating” value (morningglory; [6]) was 10.
